Broadly, the Cmax is the peak of the concentration-time curve. As usually defined, the clearance is a measure of how efficiently the substance is removed, as volume per time.

The nature of one data set: in vivo. Also noted: species or system AG129 mice. Particulars: Crl:CD1(ICR), dose-adjusted PK data from the 25 mg/kg/day dose of the mouse 14-day study, read-out: Cmax at which relevant pharmacological activity is expected. The method, then:
UV-4B was evaluated in four in vitro genetic toxicology assays (two Ames bacterial reverse mutation, mouse lymphoma assay, and chromosomal aberration in cultured human lymphocytes), and in an in vivo (mouse bone marrow micronucleus). UV-4B was not found to be mutagenic or clastogenic in any of these assays
2.2 Rationale for Dose Selection
This is a single-ascending dose study in which UV-4B will be administered for the first time in humans. The study will evaluate the safety, tolerability, and PK of increasing oral doses of […]
The results from this study will form the basis for the selection of doses of UV-4B to be used in future studies in healthy subjects and in patients diagnosed with uncomplicated DENV infection.
In the studies summarized below, the dose stated refers to the free-base used in vitro or administered during in vivo experiments.
The proposed doses for Cohorts 1 through 8 will range from 3 mg to 1000 mg of UV-4B (dose stated refers to the free base; see Table 2). […]
UV-4B, administered orally TID (intragastric via oral gavage) for a total number of 7 days (first dose administered 1 hour prior to infection) was effective in promoting survival of AG129 mice challenged with DENV. Of the doses evaluated (2.5, 5, 10, 20, and 40 mg/kg TID), the minimal effective dose (survival of 90% to 100%) was determined to be 10 mg/kg TID (UV4-LIA-0002). […]

A short description of data set [1]: Prediction of human clearance and exposure by scaling of IV PK data from mouse, rat and dog against body weight. The method, then: Pharmacokinetic parameters seen in the Phase 1a study were compared to exposure and clearance data collected in animal studies to determine if consistent parameters are observed across species (detailed ADME and PK assessment in non-human species will be described in a manuscript in preparation). Nonclinical PK and excretion studies of UV-4 as the hydrochloride salt and UV-4 free base were conducted using the oral and IV routes of administration as single doses in mice, rats, ferrets, and dogs. […] Absorption was rapid following oral administration in each nonclinical species, in alignment with the median Tmax of 0.5 to 1 hour across all dose groups in the Phase 1a study.

The subject of another data set is CYP2E1. Also noted: method as in Investigator’s Brochure (IB). Particulars: in vitro; ref Investigator’s Brochure (IB); cited from earlier work.
A further data set deals with ER α-glucosidase enzymes. Also on record: method as in PMID 32227946. Particulars: single dose of UV-4; cited from earlier work.
Details of data set [2]: method as in Investigator’s Brochure (IB). Particulars: single oral dose, ferrets; ref Investigator’s Brochure (IB); cited from earlier work.

As for `COCCCCCCCCCN1C[C@H](O)[C@@H](O)[C@H](O)[C@H]1CO` [UV-4, N-(9’-methoxynonyl)-1-deoxynojirimycin], in “in vivo”, the Cmax was 4000 to 8000 ng/mL. The clearance in data set [1] (human, simple scaling of systemic clearance against body weight, IV PK data of mouse, rat and dog, read-out: Human systemic clearance, estimated (converted)) was 560 mL/min. Further, the “Total exposure (AUC(0-inf)), predicted” value in data set [1] (starting dose of 3 mg, from scaled clearance) was 89 ng·h/mL. Besides, the “Direct inhibition of CYP2E1” value in the data set on CYP2E1 is “No clinically relevant direct inhibition”. Further, the “Duration of pharmacodynamic effect on the target ER α-glucosidase enzymes” value in the data set with ER α-glucosidase enzymes was “at least 72 hours”. Besides, the t1/2 in data set [2] was 2 h.

Source of the values: publication PMC9387934, “Randomized single oral dose phase 1 study of safety, tolerability, and pharmacokinetics of Iminosugar UV-4 Hydrochloride (UV-4B) in healthy subjects” (PLoS Neglected Tropical Diseases, 2022).
